ChEMBL document CHEMBL5136983, “How the structural properties of the indole derivatives are important in kinase targeted drug design?: A case study on tyrosine kinase inhibitors” (Bioorg Med Chem, 2022)

Biological target: T1, Epidermal growth factor receptor (Homo sapiens, UniProt P00533)
Assay: Inhibition of EGFR derived from human A-431 cells using copolymer of Glu/Ala/Tyr as substrate by scintillation counting method

T1 sequence (P00533 whole entry): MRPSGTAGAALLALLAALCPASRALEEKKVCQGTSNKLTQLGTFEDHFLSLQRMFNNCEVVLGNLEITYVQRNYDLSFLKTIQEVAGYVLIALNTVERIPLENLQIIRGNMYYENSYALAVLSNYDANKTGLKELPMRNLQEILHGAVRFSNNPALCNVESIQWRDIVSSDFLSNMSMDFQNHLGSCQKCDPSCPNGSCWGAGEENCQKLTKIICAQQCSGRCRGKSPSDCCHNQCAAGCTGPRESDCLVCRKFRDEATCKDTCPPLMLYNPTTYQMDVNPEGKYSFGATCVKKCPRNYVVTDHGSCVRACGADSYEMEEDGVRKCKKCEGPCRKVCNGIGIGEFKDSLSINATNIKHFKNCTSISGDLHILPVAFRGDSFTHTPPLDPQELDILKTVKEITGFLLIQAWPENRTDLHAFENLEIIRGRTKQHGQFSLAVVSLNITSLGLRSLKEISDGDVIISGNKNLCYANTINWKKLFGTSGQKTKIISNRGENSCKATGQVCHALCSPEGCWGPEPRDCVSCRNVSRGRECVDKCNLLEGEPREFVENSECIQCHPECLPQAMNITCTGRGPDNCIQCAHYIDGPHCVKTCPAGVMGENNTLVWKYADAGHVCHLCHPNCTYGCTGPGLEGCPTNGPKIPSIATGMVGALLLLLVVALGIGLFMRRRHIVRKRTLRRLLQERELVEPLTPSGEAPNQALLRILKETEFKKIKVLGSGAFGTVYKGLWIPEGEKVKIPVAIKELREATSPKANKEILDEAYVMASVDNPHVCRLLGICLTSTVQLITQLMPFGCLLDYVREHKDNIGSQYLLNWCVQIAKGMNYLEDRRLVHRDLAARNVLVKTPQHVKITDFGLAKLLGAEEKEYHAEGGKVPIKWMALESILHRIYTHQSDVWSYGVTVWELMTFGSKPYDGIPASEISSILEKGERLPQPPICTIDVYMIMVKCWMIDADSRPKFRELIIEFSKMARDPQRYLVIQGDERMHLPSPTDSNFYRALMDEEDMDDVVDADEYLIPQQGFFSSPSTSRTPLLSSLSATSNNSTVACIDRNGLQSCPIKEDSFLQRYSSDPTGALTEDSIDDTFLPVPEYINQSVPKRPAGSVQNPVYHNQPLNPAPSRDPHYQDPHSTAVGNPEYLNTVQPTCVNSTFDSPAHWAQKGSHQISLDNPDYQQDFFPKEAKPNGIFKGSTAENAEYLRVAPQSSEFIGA

Row | IC50 [µM] | SMILES
1 | > 100 | Cn1c(SSc2c(C(=O)Nc3ccccc3)c3c(O)cccc3n2C)c(C(=O)Nc2ccccc2)c2c(O)cccc21
2 | > 100 | Cc1ccc2c(c1)c(C(=O)Nc1ccccc1)c(SSc1c(C(=O)Nc3ccccc3)c3cc(C)ccc3n1C)n2C
3 | > 100 | Cc1ccc2c(C(=O)Nc3ccccc3)c(SSc3c(C(=O)Nc4ccccc4)c4ccc(C)cc4n3C)n(C)c2c1

Test system: A549
Assay: Antiproliferative activity against human A549 cells assessed as cell growth inhibition
Type: functional, cell-based

Row | IC50 [µM] | SMILES
4 | 4.99 | CCn1c(C)c(C(=O)NCc2ccc(F)cc2)c2cc(OCC(=O)NCCOc3ccccc3OC)ccc21

Test system: HeLa
Assay: Antiproliferative activity against human HeLa cells assessed as cell growth inhibition
Type: functional, cell-based

Row | IC50 [µM] | SMILES
5 | 6.81 | CCn1c(C)c(C(=O)NCc2ccc(F)cc2)c2cc(OCC(=O)NCCOc3ccccc3OC)ccc21

Test system: SW480
Assay: Antiproliferative activity against human SW480 cells assessed as cell growth inhibition
Type: functional, cell-based

Row | IC50 [µM] | SMILES
6 | 13.1 | CCn1c(C)c(C(=O)NCc2ccc(F)cc2)c2cc(OCC(=O)NCCOc3ccccc3OC)ccc21

Biological target: T1, Epidermal growth factor receptor
Assay: Inhibition of EGFR in human A-431 cell membrane vesicles using phospholipase C-gamma-1 as substrate incubated for 10 mins by scintillation counter method
Type: cell membranes, Membrane vesicle

Row | IC50 [µM] | SMILES
7 | > 10 | CN(C)CCNc1ncnc2c1[nH]c1ccccc12
8 | > 10 | c1ccc2c(c1)[nH]c1c(NC3CCCCC3)ncnc12

Test system: not listed separately
Assay: Antiproliferative activity against mouse Swiss-3T3 cells assessed as cell growth inhibition incubated for 72 hrs by cell counter method
Type: toxicity, cell-based

Row | SMILES | IC50 at 72 h [µM]
9 | Cn1c(SSc2c(C(=O)Nc3ccccc3)c3c(O)cccc3n2C)c(C(=O)Nc2ccccc2)c2c(O)cccc21 | 1.9

Test system: not listed separately
Assay: Inhibition of PDGFR (unknown origin)
Design: species or system Homo sapiens

Row | IC50 [µM] | SMILES
10 | > 30 | Cc1ccccc1-c1nc2c(c3c1[nH]c1ccc(O)cc13)C(=O)NC2=O
11 | 1 | COc1cc2[nH]c3c(-c4ccccc4C)nc4c(c3c2cc1OC)C(=O)NC4=O
12 | > 30 | COc1ccccc1-c1nc2c(c3c1[nH]c1ccc(OCc4ccccc4)cc13)C(=O)NC2=O
13 | 10 | COc1ccccc1-c1nc2c(c3c1[nH]c1ccc(O)cc13)C(=O)NC2=O
14 | > 30 | O=C1NC(=O)c2c1nc(-c1ccccc1)c1[nH]c3ccccc3c21
15 | 1 | COc1cc2[nH]c3c(-c4ccccc4)nc4c(c3c2cc1OC)C(=O)NC4=O
16 | > 30 | COc1ccc2[nH]c3c(-c4ccccc4)nc4c(c3c2c1)C(=O)N(C)C4=O
17 | > 30 | Cc1ccccc1-c1nc2c(c3c1[nH]c1ccc(OCc4ccccc4)cc13)C(=O)NC2=O
18 | 3 | COc1ccc2[nH]c3c(-c4ccccc4)nc4c(c3c2c1)C(=O)NC4=O

Test system: not listed separately
Assay: Inhibition of PDGF-BB-stimulated PDGFR autophosphorylation in mouse Swiss-3T3 cells treated for 2 hrs followed by PDGF-BB stimulation measured after 10 mins by immunoblot analysis
Type: cell-based

Row | IC50 [µM] | SMILES
19 | > 30 | COc1cccc2cc(C(=O)c3cc4ccccc4[nH]3)[nH]c12
20 | 0.1 | CN(C)CCC(=O)Oc1ccc2[nH]c(C(=O)c3cc4ccccc4[nH]3)cc2c1
21 | 7.5 | Cc1ccc2[nH]c(C(=O)c3cc4ccccc4[nH]3)cc2c1
22 | 0.3 | COc1ccc2[nH]c(C(=O)c3cc4ccccc4[nH]3)cc2c1
23 | > 30 | O=C(c1cc2ccccc2s1)c1cc2ccccc2s1
24 | 0.2 | COCC(=O)Oc1ccc2[nH]c(C(=O)c3cc4ccccc4[nH]3)cc2c1
25 | 0.3 | COc1ccc2cc(C(=O)c3cc4ccccc4[nH]3)[nH]c2c1
26 | 0.2 | O=C(c1cc2ccccc2[nH]1)c1cc2cc(O)ccc2[nH]1

Test system: not listed separately
Assay: Inhibition of v-src (unknown origin)

Row | IC50 [µM] | SMILES
27 | 7 | NC(Cc1c(SSc2[nH]c3ccccc3c2CC(N)C(=O)NCc2ccccc2)[nH]c2ccccc12)C(=O)NCc1ccccc1 (stereo unspecified)
28 | 6 | CNC(=O)c1c(SSc2c(C(=O)NC)c3ccccc3n2C)n(C)c2ccccc12
29 | 2 | NC(Cc1c([Se][Se]c2[nH]c3ccccc3c2CC(N)C(=O)NCc2ccccc2)[nH]c2ccccc12)C(=O)NCc1ccccc1 (stereo unspecified)
30 | 1.8 | CN(C)CCNC(=O)c1c([Se][Se]c2c(C(=O)NCCN(C)C)c3ccccc3n2C)n(C)c2ccccc12

Row | SMILES | IC50 [µM]
31 | CNC(=O)c1c([Se][Se]c2c(C(=O)NC)c3ccccc3n2C)n(C)c2ccccc12 | 0.4
32 | CCN(CC)CCn1c([Se][Se]c2c(C(=O)NC)c3ccccc3n2CCN(CC)CC)c(C(=O)NC)c2ccccc21 | 1.7
33 | Cn1c([Se][Se]c2c(C(=O)OC(C)(C)C)c3ccccc3n2C)c(C(=O)OC(C)(C)C)c2ccccc21 | 1.5

Biological target: T2, Proto-oncogene tyrosine-protein kinase Src (Homo sapiens, UniProt P12931)
T2 sequence (P12931 2-536 limits assumed): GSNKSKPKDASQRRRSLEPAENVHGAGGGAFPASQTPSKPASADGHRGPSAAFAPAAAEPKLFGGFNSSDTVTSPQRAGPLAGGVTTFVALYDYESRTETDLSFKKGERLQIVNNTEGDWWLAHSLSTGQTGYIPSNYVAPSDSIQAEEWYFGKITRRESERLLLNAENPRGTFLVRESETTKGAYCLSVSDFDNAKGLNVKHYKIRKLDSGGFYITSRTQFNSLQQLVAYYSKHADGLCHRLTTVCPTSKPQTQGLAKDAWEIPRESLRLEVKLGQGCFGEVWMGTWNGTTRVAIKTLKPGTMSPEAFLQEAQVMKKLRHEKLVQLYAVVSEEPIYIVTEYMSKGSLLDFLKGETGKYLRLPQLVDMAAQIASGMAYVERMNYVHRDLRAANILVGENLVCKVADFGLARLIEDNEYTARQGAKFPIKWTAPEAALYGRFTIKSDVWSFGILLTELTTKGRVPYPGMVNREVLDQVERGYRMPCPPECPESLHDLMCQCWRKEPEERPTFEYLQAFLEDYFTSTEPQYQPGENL
Assay: Inhibition of p60 c-src (unknown origin)

Row | IC50 [µM] | SMILES
34 | 1.34 | O=C(OCCN1CCCCC1)c1cc2ccccc2n1Cc1ccccc1

Biological target: T2, Proto-oncogene tyrosine-protein kinase Src
Assay: Inhibition of src (unknown origin)

Row | IC50 [µM] | SMILES
35 | 106 | O=C1/C(=N\c2ccc(Cl)cc2)c2ccccc2N1Cc1ccccc1

Biological target: T1, Epidermal growth factor receptor
Description: Inhibition of EGFR derived from human A-431 cell membrane vesicles using copolymer of Glu/Ala/Tyr as substrate by scintillation counting method

Row | IC50 [µM] | SMILES
36 | 0.85 | O=C(CCc1c(SSc2[nH]c3ccccc3c2CCC(=O)Nc2ccccc2)[nH]c2ccccc12)Nc1ccccc1
